The target of one test is T1, cyclin B/Cdc2 (Xenopus laevis, UniProt P35567).
T1 construct: from tissue; host or cells: Xenopus interphase egg extract (Cdc2); recombinant GST cyclin B added
In words: Activity of dephosphorylated-active cyclin B/Cdc2. The class given is biochemical. As to conditions: same conditions as Cdc25 assay. Here is the method:
Cdc2 was assayed using histone H1 as a substrate, as previously described in Murray, 1991; Lu and Hunter, (1995).
Therefore, we tested whether Pin1 could affect the physiological activity of Cdc25, which is to dephosphorylate and activate the cyclin B/Cdc2 complex. To generate the mitotically phosphorylated form of Cdc25, GST-Cdc25 was incubated in Xenopus mitotic extracts, affinity purified on glutathione agarose beads and eluted. […] This offers one explanation for the ability of Pin1 to inhibit mitotic entry.

In a further test the test system is MPM-2 antigens. In words: GST-Pin1 pull-down / depletion of MPM-2 antigens from HeLa cell extracts, MPM-2 immunoblotting. The class given is binding, human. How it is done: To detect Pin1-binding proteins, either HeLa cells were lysed in or Xenopus extracts were diluted in a buffer (buffer A) containing 50 mM Tris-HCl, pH 8.0, 200 mM NaCl, 100 mM NaF, 1 mM sodium orthovanadate, 10% glycerol, 1% Triton X100, 10 μg/ml aprotinin, 50 μg/ml phenylmethylsulfonyl fluoride and 1 mM DTT. The lysates were preclarified with boiled S. aureus bacteria (CalBiochem) and then incubated with 10 μl of agarose beads containing various GST-Pin1 proteins or control GST for 2 h at 4° C. The precipitated proteins were washed 5 times in the same buffer and subjected to immunoblotting analysis. Immunoprecipitation and immunoblotting analysis using MPM-2 antibody (Davis et al. 1983), which was kindly provided by J. Kuang, Pin1 antibodies (Lu et al., 1996, kindly provided by M. White or newly generated), anti-phospho.Tyr antibody (UBI), anti-Cdc25C (Ogg, et al., 1994) (from H. Piwnica-Worms and Santa Cruz Biotechnology), anti-Cdc27, anti-Plk1 (Zymed), anti-Cdc2 (Solomon, M. J., M. Glotzer, T. H. Lee, M. Philippe and M. W. Kirschner. Cell 63:1013-1024 (1991), anti-human Myt1, anti-human cyclin B1 and anti-Xenopus cyclin B were performed, as described previously in Lu and Hunter, 1995; Lu et al., 1996).
To determine whether GST-Pin1 can deplete MPM-2 antigens and to estimate what concentrations of Pin1 are required to completely deplete MPM-2 antigens, mitotic extracts were incubated with different amounts of GST-Pin1, followed by analyzing MPM-2 antigens remaining in the depleted supernatants. The total cellular Pin1 concentration in HeLa cells was estimated to be about 0.5 μM, based on immunoblotting analysis using anti-Pin1 antibodies with recombinant Pin1 protein as a standard.
To determine if the Pin1 mutants interact with mitotic phosphoproteins, GST-Pin1, -Pin1^R68,69A and -Pin1^H59A fusion proteins were incubated with interphase or mitotic HeLa cell extracts and associated proteins subjected to MPM-2 immunoblotting analysis. […] A few proteins including the most strongly reacting p55 band could still be recognized. […] Thus, mutating the residues that are implicated in binding either the substrate's putative phosphate group or the substrate's Pro residue abolish the ability of Pin1 to bind MPM-2 antigens.

In another test the test system is Xenopus embryos. Put plainly: Microinjection of Xenopus embryos, cell cycle block. The class given is in vivo. Here is the method: Unfertilized eggs were incubated with sperm, dejellied, and 4 μM of the indicated protein (about 10 fold above the estimated endogenous levels) was injected in one cell of two cell stage embryos (30 embryos each protein). The injected embryos were allowed to develop at 18° C. to stage 8 and pictures were taken of typical embryos. The titration of Pin1 and the mutants was essentially as described above except that the indicated protein was injected into one cell of 4 cell stage (18 embryos each Pin1 concentration) to the indicated final concentration and allowed to develop for 3h. […] To be consistent, cell cycle blocked embryo's were scored as those that contained at least one cell on the injected side that was greater than 5 times larger than uninjected cells (FIG. 2).
To examine whether increasing the concentration of Pin1 has similar biological effects in Xenopus, Pin1 or Pin1 mutants were injected into one cell of 2 cell stage embryos and allowed the embryos to develop for 3 h (about 5 divisions). […] In contrast, the same extracts containing 40 μM of either BSA or the mutant Pin1 proteins entered mitosis by 70 to 80 min as detected by nuclear envelope breakdown, spindle formation and high histone H1 kinase activity. […]

The values below come from patent publication US6462173B1, “Inhibitors of phosphoserine and phosphothreonine-proline-specific isomerases” (Max-Planck-Gesellschaft zur Forderung der, priority 1997, dated 2002).

T1 sequence (P35567 whole entry): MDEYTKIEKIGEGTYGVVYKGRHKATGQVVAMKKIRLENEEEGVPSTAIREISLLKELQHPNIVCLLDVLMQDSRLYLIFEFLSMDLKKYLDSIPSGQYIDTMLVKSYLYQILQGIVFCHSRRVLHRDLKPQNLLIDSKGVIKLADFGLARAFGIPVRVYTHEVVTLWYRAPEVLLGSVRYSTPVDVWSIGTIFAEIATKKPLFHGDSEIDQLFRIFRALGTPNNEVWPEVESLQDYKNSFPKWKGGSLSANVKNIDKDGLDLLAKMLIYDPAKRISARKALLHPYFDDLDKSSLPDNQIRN
T1 sequence (P07818 whole entry partner): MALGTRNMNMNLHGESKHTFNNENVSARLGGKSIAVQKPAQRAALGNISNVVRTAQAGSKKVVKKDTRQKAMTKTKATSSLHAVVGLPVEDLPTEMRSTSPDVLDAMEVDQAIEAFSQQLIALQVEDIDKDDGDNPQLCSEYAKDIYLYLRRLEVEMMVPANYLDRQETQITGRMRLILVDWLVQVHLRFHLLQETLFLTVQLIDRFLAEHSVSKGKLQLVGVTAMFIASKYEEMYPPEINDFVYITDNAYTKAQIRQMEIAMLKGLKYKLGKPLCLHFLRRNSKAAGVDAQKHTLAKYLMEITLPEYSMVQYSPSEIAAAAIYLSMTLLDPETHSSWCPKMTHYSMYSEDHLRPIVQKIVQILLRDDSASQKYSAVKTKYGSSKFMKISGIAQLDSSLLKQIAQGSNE

Regarding “Pin1: essential mitotic peptidyl-prolyl cis-trans isomerase, recombinant protein”, in the test with cyclin B/Cdc2, the “effect on cdc2 activity” value was “Neither Pin1 nor the Pin1 mutant had any effect on cdc2 activity”. The “depletion of MPM-2 antigens” value in the test on MPM-2 antigens (8 μM GST-Pin1, mitotic extracts) is reported as “depleted the majority of MPM-2 antigens”. Moreover, in the test on MPM-2 antigens (mitotic HeLa cell extracts, GST fusion proteins), the “binding of MPM-2 antigens” value was “specifically interacted with MPM-2 antigens”. Further, the “cleavage of injected cells” value with Xenopus embryos (4 μM final, one cell of 2 cell stage embryos, 3 h) is “failed to cleave or cleaved slowly”. Also, in the test on Xenopus embryos (10 μM, approximately 20 fold above estimated endogenous levels), the “inhibition of the cell cycle” value was “completely inhibited the cell cycle”.
